Read-outs that look alike come from different tables or passages of the source.
Assays:
Pharmacokinetics in dog = format: in vivo, male Beagle dog; conditions: Beagle dog; for pharmacokinetic properties (conclusion in words): iv and po, Tables 13 and 14; for AUC(0-t) / clearance / Vd / Cmax / Tmax / bioavailability: male, plasma; for Vd: read-out: Vss; for bioavailability: read-out: F (absolute bioavailability)
Protocol: Test animal: male Beagle dog, 3 dogs/administration route/compound, weight: 7-12 kg.
Solvent for intraveneous injection (iv) of Compound 31: 20% DMF (N,N-dimethylformamide)+20% PEG400 (polyethylene glycol 400)+60% sterile water for injection
Compound 31 (15.40 mg) was weighed, dissolved in solvent for intraveneous injection ultrasonically, and mixed homogeneously under vortexing, to get a clear and transparent compound solution at a theoretical concentration of 0.5 mg/mL.
Solvent for intraveneous injection (iv) of Compound 2, 28: 5% DMSO+10% PEG400+85% (28% HP-β-CD)
Compound 2 (20.72 mg) and Compound 28 (16.16 mg) were weighed, respectively, dissolved by adding solvent for intraveneous injection, mixed homogeneously under vortexing, placed in a 50° C. constant temperature water bath for 20 min, and mixed homogeneously under vortexing to get a clear and transparent compound solution at a theoretical concentration of 0.5 mg/mL.
Solvent for intragastric administration (po) of Compound 2, 28, 31: 0.1% Tween 80+2% HPC (hydroxypropyl cellulose)
Preparation: HPC (hydroxypropyl cellulose) (20 g) was weighed, and slowly added to purified water (1000 mL) under stirring. Tween 80 (1 mL) was added, and the mixture was stirred until it became clear, to get a solvent for intragastric administration. Compound 2 (41.77 mg), Compound 31 (31.35 mg) and Compound 28 (31.10 mg) were weighed, respectively, solvent for intragastric administration was added, and the resultant mixture was placed in a tissue grinder, and ground at a speed of 1000 r/min. After homogeneous dispersion, the solution for intragastric administration was obtained.
For PO group: 0.167, 0.5, 1, 2, 4, 6, 8, 24 h after administration.
Blood collection: 400 μL whole blood was collected from vein of dog fore limb at each time point, added to an anticoagulation tube containing K2EDTA, and centrifuged at 8000 r/min, 4° C. for 6 min in a centrifuge to separate the plasma; the separated plasma was stored in a refrigerator at −80° C.
By means of protein precipitation, to 30 μL plasma, 200 μL internal standard (acetonitrile solution containing 50 ng/mL CNX-2006) was added; the resultant mixture was vortexted for 10 min at 1500 r/min, and centrifuged at 12000 r/min for 5 min; to a suitable amount of supernatant, a suitable amount of water was added; the resultant mixture was mixed homogeneously under vortexing and analyzed by LC-MS/MS.

[1] = tested on: A431 cell (wild-type EGFR gene); experiment: In vitro cytologic activity, Celltiter-Glo, A431 cells; format: cell-based; conditions: Homo sapiens, A-431, 72 h
Protocol: 1.1 Preparation of Cell Suspension
Culture medium was removed from culture bottle;
PBS was added to wash the cells; • pancreatin was added for digestion, and the cells were collected by centrifugation; • the cells were resuspended in a culture medium containing 10% fetal bovine serum, counted and adjusted to a concentration of 2×10^4/mL or 3×10^4/mL (cell viability must be greater than 90%); • the cell suspension was added to a 96-well plate, at 100 μL for each well, i.e., 2000/well for H1975 cell; 3000/well for A431 cell; and • the cells were cultured at 37° C. in 5% CO2 incubator overnight.
Dilution of a compound in DMSO (or water for injection) • (1) The compound was 5-fold diluted with DMSO from 10 mM to 2 mM, and then 4-fold diluted from 2 mM, to get 10 concentrations; • High control (HC, control without compound inhibition): 0.5% DMSO; • Low control (LC, control with compound inhibition): 1000 nM.
i. To each well, 99 μL growth medium containing 10% FBS was added, and then 1 μL diluted compound was added, the total volume of the well was […], and the final concentration of the compound was measured.
The test plate was left at room temperature, and equilibrated for 30 min. 80 μL culture medium was discarded. 60 μL CTG reagent (Celltiter-Glo kit) was added, and shaked for 2 min in a fast shaker, and was placed at room temperature for 10 min. The values were read by Envision instrument.

wild-type EGFR (WT EGFR) = wild-type EGFR (WT EGFR) (Homo sapiens (Human), UniProt P00533); experiment: Mobility Shift Assay, in vitro enzyme-inhibiting activity, wild-type EGFR; format: biochemical; conditions: Km ATP
Protocol: 1. Preparation of Reagents
2. Preparation of a Compound Solution
(1) To the second well of a 96-well plate, 5 μL 10 mM compound (dissolved in DMSO) was added, and 95 μL 100% DMSO was added to prepare 100 μL 0.5 mM compound.
(2) To other wells, 60 μL 100% DMSO was added. 20 μL compound from the second well was added to the third well, and 4-fold dilution was further performed to get 10 diluted concentrations.
(3) To the first well and the twelfth well of the 96-well plate, 100 μL 100% DMSO was separately added, and the two wells were used as control wells.
(4) 10 μL from each well of the 96-well plate was added to another 96-well plate, and 90 μL 1-fold kinase buffer was added.
(5) 5 μL from the 96-well plate was added to another 384-well plate, for example, transferred from A1 well of the 96-well plate to A1 and A2 wells of the 384-well plate, and transferred from A2 well of the 96-well plate to A3 and A4 wells of the 384-well plate, and so on.
To 384-well plate, 10 μL 2.5-fold enzyme solution was added, and incubated at room temperature for 10 min.
(5) Kinase reaction and stop
After incubation at 28° C. for a period of time (depending on kinase), 25 μL stop solution was added.
4. Data on percent conversion was read by Caliper.
(1) Data on enzyme activity was obtained by Caliper program;
(2) Inhibition rate of enzyme activity was calculated from the data on enzyme activity by the following formula: Inhibition rate(%)=(maximal value−the measured value of a test compound)/(maximal value-minimal value)×100,
wherein, the maximal value represents the measured value of DMSO control; and the minimal value represents the measured value of blank control.
(3) Calculation of IC50 value by XLFit excel.

Chain of wild-type EGFR (WT EGFR) (P00533 25-1210): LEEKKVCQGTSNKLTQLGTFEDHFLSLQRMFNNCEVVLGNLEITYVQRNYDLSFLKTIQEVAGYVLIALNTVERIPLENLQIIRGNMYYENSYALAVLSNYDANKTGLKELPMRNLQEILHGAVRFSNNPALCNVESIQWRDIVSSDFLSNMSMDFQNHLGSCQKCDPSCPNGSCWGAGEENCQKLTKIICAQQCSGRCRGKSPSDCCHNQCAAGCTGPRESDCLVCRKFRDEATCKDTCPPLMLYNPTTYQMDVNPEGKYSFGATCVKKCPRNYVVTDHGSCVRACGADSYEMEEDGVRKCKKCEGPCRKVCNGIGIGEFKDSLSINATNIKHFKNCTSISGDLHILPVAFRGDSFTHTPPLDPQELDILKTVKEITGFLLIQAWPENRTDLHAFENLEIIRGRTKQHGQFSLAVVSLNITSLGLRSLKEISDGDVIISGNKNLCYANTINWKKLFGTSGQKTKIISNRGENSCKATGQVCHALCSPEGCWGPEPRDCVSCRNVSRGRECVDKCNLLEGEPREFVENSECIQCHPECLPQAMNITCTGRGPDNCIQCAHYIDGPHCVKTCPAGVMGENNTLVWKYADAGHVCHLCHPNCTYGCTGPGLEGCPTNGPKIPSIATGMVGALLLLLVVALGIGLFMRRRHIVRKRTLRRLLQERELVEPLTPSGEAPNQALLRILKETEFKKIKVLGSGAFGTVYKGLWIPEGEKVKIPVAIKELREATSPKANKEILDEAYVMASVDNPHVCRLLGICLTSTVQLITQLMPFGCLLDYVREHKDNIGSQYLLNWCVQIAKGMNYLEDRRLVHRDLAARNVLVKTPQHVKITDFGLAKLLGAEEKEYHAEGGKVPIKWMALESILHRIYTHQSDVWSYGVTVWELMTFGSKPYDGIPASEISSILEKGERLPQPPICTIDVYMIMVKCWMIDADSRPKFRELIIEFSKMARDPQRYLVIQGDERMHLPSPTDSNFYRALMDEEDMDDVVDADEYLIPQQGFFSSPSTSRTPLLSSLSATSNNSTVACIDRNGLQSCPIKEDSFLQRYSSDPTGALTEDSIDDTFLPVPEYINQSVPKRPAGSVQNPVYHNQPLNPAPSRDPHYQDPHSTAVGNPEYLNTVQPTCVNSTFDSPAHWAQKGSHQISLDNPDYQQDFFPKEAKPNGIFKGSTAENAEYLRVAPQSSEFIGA

| pharmacokinetic properties (conclusion in words) (Pharmacokinetics in dog) | AUC(0-t) (Pharmacokinetics in dog; iv, 0.5 mg/kg) [ng·h/mL] | clearance (Pharmacokinetics in dog; iv, 0.5 mg/kg) [mL/min/kg] | Vd (Pharmacokinetics in dog; iv, 0.5 mg/kg) [L/kg] | IC50 ([1]; Table 10, unit inferred) [nM] | IC50 (wild-type EGFR (WT EGFR); Table 4, unit inferred) [nM] | SMILES | also measured |
| --- | --- | --- | --- | --- | --- | --- | --- |
| good pharmacokinetic properties | 693 | 11.8 | 1.36 | – | – | C=CC(=O)Nc1cccc(Nc2nc(Nc3ccc(C4CCN(C(C)=O)CC4)cc3OC)ncc2C(F)(F)F)c1 [Compound 2, N-(3-((2-((4-(1-acetylpiperidin-4-yl)-2-methoxyphenyl)amino)-5-(trifluoromethyl)pyrimidin-4-yl)amino)phenyl)acrylamide] | AUC(0-t) (Pharmacokinetics in dog; po, 0.54 mg/kg): 528 ng·h/mL; Cmax (Pharmacokinetics in dog; po, 0.54 mg/kg): 211 ng/mL; Tmax (Pharmacokinetics in dog; po, 0.54 mg/kg): 0.5 h; bioavailability (Pharmacokinetics in dog; po, 0.54 mg/kg): 70%; IC50 ([1]; Table 9): 1850 nM; IC50 (wild-type EGFR (WT EGFR); Table 1): 552 nM; IC50 (wild-type EGFR (WT EGFR); Table 5): 344 nM |
| good pharmacokinetic properties | 1580 | 5.5 | 1.1 | 703 | 73 | C=CC(=O)Nc1cccc(Nc2nc(Nc3ccc(N4CCC(N5CCOCC5)CC4)cc3OC)ncc2C(F)(F)F)c1 [Compound 28, N-(3-((2-((2-methoxy-4-(4-morpholinopiperidin-1-yl)phenyl)amino)-5-(trifluoromethyl)pyrimidin-4-yl)amino)phenyl)acrylamide] | AUC(0-t) (Pharmacokinetics in dog; po, 1.28 mg/kg): 1820 ng·h/mL; Cmax (Pharmacokinetics in dog; po, 1.28 mg/kg): 523 ng/mL; Tmax (Pharmacokinetics in dog; po, 1.28 mg/kg): 1 h; bioavailability (Pharmacokinetics in dog; po, 1.28 mg/kg): 46% |
| good pharmacokinetic properties | 1270 | 6.67 | 0.38 | 2720 | – | C=CC(=O)Nc1cccc(Nc2nc(Nc3ccc(N4CC5(CN(C(C)=O)C5)C4)cc3OC)ncc2C(F)(F)F)c1 [Compound 31, N-(3-((2-((4-(6-acetyl-2,6-diazaspiro[3.3]heptan-2-yl)-2-methoxyphenyl)amino)-5-(trifluoromethyl)pyrimidin-4-yl)amino)phenyl)acrylamide] | AUC(0-t) (Pharmacokinetics in dog; po, 1 mg/kg): 545 ng·h/mL; Cmax (Pharmacokinetics in dog; po, 1 mg/kg): 261 ng/mL; Tmax (Pharmacokinetics in dog; po, 1 mg/kg): 1 h; bioavailability (Pharmacokinetics in dog; po, 1 mg/kg): 23%; IC50 (wild-type EGFR (WT EGFR); Table 7): 210 nM |
| – | – | – | – | 2790 | 871 | C=CC(=O)Nc1cccc(Nc2nc(Nc3ccc(C4CCN(S(C)(=O)=O)CC4)cc3OC)ncc2C(F)(F)F)c1 [Compound 27, N-(3-((2-((2-methoxy-4-(1-(methylsulfonyl)piperidin-4-yl)phenyl)amino)-5-(trifluoromethyl)pyrimidin-4-yl)amino)phenyl)acrylamide] | – |

— patent US10300058B2, “Tyrosine kinase inhibitor and uses thereof” (Xuanzhu Pharma Co., Ltd., priority 2014, dated 2019)
